# Experimental data as given in ChEMBL document CHEMBL1201862, “PubChem BioAssay data set” (2004).
# Active and inactive are the calls of the source.
# Legend:
# [1] = T. cruzi growth inhibition in host cells, dose response, cell-based, plate reader, dry powder, set 2 (AID 652275); format: functional
# [2] = molecular target: T1, Rac GTPase-activating protein 1 (Homo sapiens, UniProt Q9H0H5); assay: blockers of MgcRacGAP-driven Rac1 GTP hydrolysis – biochemical, ADP Hunter fluorescence, primary and confirmatory, confirmation (AID 624330); format: functional
# T1 sequence (Q9H0H5 whole entry): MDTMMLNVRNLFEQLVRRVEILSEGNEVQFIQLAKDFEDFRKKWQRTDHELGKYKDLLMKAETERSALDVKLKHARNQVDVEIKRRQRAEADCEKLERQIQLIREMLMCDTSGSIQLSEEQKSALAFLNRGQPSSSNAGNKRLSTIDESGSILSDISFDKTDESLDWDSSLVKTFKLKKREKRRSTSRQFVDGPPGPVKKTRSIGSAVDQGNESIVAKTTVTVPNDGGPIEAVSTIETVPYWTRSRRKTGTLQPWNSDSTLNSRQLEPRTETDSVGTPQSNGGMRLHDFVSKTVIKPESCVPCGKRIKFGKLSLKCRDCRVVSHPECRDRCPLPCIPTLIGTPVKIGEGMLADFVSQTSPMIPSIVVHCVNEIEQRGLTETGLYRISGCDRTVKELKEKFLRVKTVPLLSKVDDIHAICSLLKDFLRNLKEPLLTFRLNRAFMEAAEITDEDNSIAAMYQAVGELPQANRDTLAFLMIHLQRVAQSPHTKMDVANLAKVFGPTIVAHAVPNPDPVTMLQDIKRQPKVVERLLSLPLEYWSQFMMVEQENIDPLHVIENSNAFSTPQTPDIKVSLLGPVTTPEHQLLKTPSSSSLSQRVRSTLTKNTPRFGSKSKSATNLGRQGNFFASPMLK
# [3] = viability loss in HeLa cells – cytotoxicity control for MgcRacGAP inhibitor project, dose response (AID 624300); format: functional
# [4] = molecular target: T2, Beta-lactamase (Pseudomonas aeruginosa, UniProt Q79MP6); assay: […] counterscreen for selective VIM-2 inhibitors: dose response biochemical high throughput screening assay to identify inhibitors of IMP-1 metallo-beta-lactamase.
# T2 sequence (Q79MP6 whole entry): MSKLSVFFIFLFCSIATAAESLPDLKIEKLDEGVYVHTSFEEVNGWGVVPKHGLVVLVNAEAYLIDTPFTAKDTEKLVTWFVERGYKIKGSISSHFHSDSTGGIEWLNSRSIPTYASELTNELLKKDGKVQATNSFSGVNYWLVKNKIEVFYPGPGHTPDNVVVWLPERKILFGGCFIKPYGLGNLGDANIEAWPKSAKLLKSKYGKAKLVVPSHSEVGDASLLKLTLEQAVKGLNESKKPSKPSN
# [5] = molecular target: Beta-lactamase (Salmonella choleraesuis (strain SC-B67), UniProt Q5J463); assay: Epi-absorbance-based counterscreen for selective VIM-2 inhibitors: dose response biochemical high throughput screening assay to identify inhibitors of TEM-1 serine-beta-lactamase.
# Sequence of Beta-lactamase (Salmonella choleraesuis (strain SC-B67), UniProt Q5J463) (Q5J463 whole entry): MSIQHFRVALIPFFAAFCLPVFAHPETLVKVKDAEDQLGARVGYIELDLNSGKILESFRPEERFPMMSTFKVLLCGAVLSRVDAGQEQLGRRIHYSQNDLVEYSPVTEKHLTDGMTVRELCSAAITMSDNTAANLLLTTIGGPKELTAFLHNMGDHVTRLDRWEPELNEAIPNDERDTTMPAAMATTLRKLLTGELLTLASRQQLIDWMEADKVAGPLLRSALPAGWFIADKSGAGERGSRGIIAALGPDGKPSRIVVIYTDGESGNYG
# [6] = molecular target: T2, Beta-lactamase; assay: inhibition of IMP-1 beta-lactamase activity – biochemical, epi-absorbance, selectivity assay for VIM-2 inhibitor project, dose response (AID 1920)
# [7] = Counterscreen for activators of the function of SWI/SNF related, matrix associated, actin dependent regulator of chromatin, subfamily a, member 2 (SMARCA2, BRM): Luminescence-based cell-based high throughput dose response assay to identify non-selective compounds using the VP16 reporter assay.; format: functional
# [8] = molecular target: SWI/SNF-related matrix-associated actin-dependent regulator of chromatin subfamily A member 2 (Homo sapiens, UniProt P51531); assay: Luminescence-based cell-based high throughput dose response assay to identify activators of the function of SWI/SNF related, matrix associated, actin dependent regulator of chromatin, subfamily a, member 2 (SMARCA2, BRM).; format: functional
# Sequence of SWI/SNF-related matrix-associated actin-dependent regulator of chromatin subfamily A member 2 (P51531 whole entry): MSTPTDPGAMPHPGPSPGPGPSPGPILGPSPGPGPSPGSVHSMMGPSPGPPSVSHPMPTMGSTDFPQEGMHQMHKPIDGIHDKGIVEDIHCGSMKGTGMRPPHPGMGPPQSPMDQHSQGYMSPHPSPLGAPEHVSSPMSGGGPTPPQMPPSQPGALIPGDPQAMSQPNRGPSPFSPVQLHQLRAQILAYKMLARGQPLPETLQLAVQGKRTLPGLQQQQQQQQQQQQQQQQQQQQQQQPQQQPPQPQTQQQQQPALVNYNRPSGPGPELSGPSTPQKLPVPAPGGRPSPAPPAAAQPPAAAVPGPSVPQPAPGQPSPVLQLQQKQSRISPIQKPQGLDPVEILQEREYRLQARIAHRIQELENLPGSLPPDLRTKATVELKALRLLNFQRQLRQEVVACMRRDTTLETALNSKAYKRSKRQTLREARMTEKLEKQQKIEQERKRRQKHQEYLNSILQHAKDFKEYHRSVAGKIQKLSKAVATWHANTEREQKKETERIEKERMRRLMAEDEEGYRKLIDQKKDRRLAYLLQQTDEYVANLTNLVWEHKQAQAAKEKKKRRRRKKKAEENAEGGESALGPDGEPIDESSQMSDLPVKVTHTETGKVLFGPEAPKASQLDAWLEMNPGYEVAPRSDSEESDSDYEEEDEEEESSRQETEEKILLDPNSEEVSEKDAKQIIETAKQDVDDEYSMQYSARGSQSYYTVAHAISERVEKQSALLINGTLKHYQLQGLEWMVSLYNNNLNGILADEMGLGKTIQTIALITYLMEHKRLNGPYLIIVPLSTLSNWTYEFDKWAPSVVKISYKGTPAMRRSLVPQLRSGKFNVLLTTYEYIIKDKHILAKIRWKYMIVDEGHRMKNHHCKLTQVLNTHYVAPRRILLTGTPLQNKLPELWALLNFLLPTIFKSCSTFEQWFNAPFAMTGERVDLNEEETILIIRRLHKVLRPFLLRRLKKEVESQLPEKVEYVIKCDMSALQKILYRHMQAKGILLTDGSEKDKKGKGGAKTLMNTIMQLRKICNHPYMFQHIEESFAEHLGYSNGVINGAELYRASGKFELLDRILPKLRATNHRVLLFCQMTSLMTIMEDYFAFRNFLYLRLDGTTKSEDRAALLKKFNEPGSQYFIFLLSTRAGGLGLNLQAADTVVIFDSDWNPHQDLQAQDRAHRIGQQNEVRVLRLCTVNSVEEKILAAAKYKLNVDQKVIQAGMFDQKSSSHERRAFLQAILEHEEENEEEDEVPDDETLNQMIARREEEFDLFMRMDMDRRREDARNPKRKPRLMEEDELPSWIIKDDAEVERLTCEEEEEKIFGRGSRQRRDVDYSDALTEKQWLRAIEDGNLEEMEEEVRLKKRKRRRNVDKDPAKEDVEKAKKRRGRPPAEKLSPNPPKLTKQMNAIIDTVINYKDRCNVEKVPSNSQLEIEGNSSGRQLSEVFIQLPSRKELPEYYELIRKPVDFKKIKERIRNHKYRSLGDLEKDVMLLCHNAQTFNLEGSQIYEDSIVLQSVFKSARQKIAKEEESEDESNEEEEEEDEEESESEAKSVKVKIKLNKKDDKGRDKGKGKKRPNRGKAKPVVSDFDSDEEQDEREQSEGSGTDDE
# [9] = tested on: HeLa; assay: viability loss in HeLa cells – cell-based, ATP luminescence, cherry-pick samples, cytotoxicity control, dose response (AID 687004); format: functional; conditions: Homo sapiens
# [10] = tested on: Cryptococcus neoformans; assay: Cryptococcus growth inhibition by alamar blue – cell lysis, cherry-picks, replicate tests, mechanism study for C. neoformans antifungal project, dose response (AID 686999); format: functional, organism-based
# [11] = molecular target: Matrix metalloproteinase-14 (Homo sapiens, UniProt P50281); assay: Dose Response confirmation of uHTS hits for a small molecule inhibitors of MT1-MMP activation in a fluorescence assay set 1.; format: functional
# [12] = molecular target: Paired box protein Pax-8 (Homo sapiens, UniProt Q06710); assay: PAX8 transcriptional activity inhibition in RMG-I – RMG-I cells, luciferase, cherry-pick, dose response (AID 687027); format: functional, cell-based;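 note: luciferase reporter driven by Pax8 target thyroperoxidase promoter measured by SteadyGlo luminescence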
# Sequence of Paired box protein Pax-8 (Q06710 whole entry): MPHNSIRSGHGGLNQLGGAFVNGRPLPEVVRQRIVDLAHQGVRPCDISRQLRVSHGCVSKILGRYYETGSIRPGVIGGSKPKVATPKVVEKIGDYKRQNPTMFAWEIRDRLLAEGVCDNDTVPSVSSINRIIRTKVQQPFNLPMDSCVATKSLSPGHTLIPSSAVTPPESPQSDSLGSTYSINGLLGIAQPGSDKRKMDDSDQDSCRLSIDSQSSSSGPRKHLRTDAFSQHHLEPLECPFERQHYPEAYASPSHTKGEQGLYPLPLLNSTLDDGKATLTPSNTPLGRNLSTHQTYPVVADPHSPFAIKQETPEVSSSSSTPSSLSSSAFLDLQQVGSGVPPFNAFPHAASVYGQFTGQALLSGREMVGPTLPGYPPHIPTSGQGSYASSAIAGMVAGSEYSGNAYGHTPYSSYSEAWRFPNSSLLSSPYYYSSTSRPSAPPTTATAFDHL
# [13] = IGROV1 cell killing – plate reader, dry powder samples, PAX8 inhibitor project, dose response (AID 743043); format: functional, cell-based; conditions: IGROV-1
# [14] = toxicity to human hepatoma HepG2 cells – cell-based, cherry-picked samples, cytotoxicity control, dose response (AID 1159577); format: functional
# [15] = P. falciparum Dd2 growth inhibitors, dose response, SYBR Green, cherry-picked samples (AID 1159567); format: functional, cell-based
# [16] = OVCAR-3 cell viability loss – plate reader, dry powder samples, PAX8 inhibitor project, dose response (AID 743044); format: functional, cell-based
# [17] = reduced cellular PGC1a acetyl-lysine signal – cell-based, cherry-picked samples, dose response (AID 720514); format: functional;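 note: potency may reflect raised or lowered acetylation signal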
structure (smiles),measurement,setting,value
CN(C)CC#Cc1cccc(-c2nc(C(=O)NCc3ccc4c(c3)OCO4)cc3c2[C@H](CCO)N([S+]([O-])C(C)(C)C)C3)c1 (some centres not stated),AC50,[1],1.38 µM (active)
Nc1nc(S)c2[nH]c(S)nc2n1,IC50,[2],112 µM (active)
same,CC50,[3],100 µM (active)
COCC(C)NC(=O)c1cc2cccc([N+](=O)[O-])c2[nH]1 (configuration not stated),IC50,[4],> 59.6 µM (inactive)
same,IC50,[5],> 59.6 µM (inactive)
same,IC50,[6],> 59.6 µM (inactive)
COc1ccc(-c2nnc(-c3ccc(N(C)C)cc3)o2)cc1,EC50,[7],> 91.2 µM (inactive)
same,EC50,[8],> 91.2 µM (inactive)
COC(=O)C1=C(C)N(Cc2ccc(F)cc2)C(=S)NC1c1ccc(F)cc1 (configuration not stated),AC50,[9],> 52 µM (inactive)
same,AC50,[10],56.1 µM (active)
Cc1cccc[n+]1CC(=O)/C=C1\N(C)c2ccccc2C1(C)C,IC50,[11],24.1 µM (inactive)
O=C(Nc1ccc(C(F)(F)F)cc1)N1C[C@@H]2N[C@H](C1)[C@@H]2c1ccc(/C=C/c2ccccc2)cc1,AC50,[12],21.7 µM (active)
same,AC50,[13],50.8 µM (active)
same,AC50,[14],2.56 µM (active)
same,AC50,[15],2.93 µM (active)
same,AC50,[16],36.8 µM (active)
same,AC50,[17],1.57 µM (active)
